From patent publication US11919902B2, “Aryl-bipyridine amine derivatives as phosphatidylinositol phosphate kinase inhibitors” (HiberCell, Inc., priority 2017, dated 2024)

target: T1, PIP4K2A (full length protein, SignalChem) (Homo sapiens, UniProt P48426); assay: Kinase Assay PIP4K2 A (Sprint); ADP-Glo biochemical assay; conditions: Table 2; compounds listed under IC50 range headings
T1 construct: 4 nM PIP4K2A (full length protein, SignalChem); purchased SignalChem
T1 sequence (P48426 1-406): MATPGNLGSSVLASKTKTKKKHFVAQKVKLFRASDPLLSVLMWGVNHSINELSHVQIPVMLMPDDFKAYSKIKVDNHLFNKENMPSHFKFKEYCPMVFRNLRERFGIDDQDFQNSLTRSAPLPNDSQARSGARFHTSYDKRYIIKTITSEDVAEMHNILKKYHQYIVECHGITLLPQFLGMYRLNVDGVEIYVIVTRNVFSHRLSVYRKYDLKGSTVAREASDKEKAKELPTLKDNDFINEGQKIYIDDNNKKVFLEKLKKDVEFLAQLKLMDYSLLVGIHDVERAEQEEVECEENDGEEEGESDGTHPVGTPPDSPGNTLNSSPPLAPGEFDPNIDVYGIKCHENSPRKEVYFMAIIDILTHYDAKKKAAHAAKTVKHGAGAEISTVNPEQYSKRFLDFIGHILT
Description: Dilution series of the compounds were prepared in DMSO at 100 times the final assay concentration (n1=n0/3 in 10 points). The compounds were further diluted to three times the assay concentration in assay buffer (20 mM MOPS pH 7.2, 25 mM magnesium chloride, 0.005% Tween 20). 6 μL of the diluted compounds were added to a 384 well assay plate followed by 9 μL of a mix consisting of 4 nM PIP4K2A (full length protein, SignalChem) and 100 μM PI(5)P diC8 (Tebu-Bio). Enzyme and compounds were pre-incubated at room temperature for 15 min.
Then 3 μL of a solution containing 60 μM ATP (Promega) in assay buffer was added to the wells containing compound and enzyme and mixing was performed by pipetting several times. The reaction was incubated at room temperature for 1 h. Then 18 μL of ADP-Glo™ Reagent (Promega) was added to stop the kinase reaction and deplete the unconsumed ATP, mixing was performed by pipetting several times. The plate was incubated at room temperature for 40 min before addition of 36 μL of Kinase Detection Reagent (Promega) to convert ADP to ATP and introduce luciferase and luciferin to detect ATP. The reaction was incubated at room temperature for 40 min before the luminescence was measured in a in a Victor 3V 1420 multilabel counter (Perkin Elmer).
Percent inhibition of the compounds as compared to dimethyl sulfoxide treated control samples was calculated. Compound concentration versus percent inhibition were fitted to generate IC50 values.

SMILES | IC50
CN(C)C(=O)c1ccc(-c2cc(-c3ccnc(C(C)(C)C)c3)cnc2N)nc1 [Example 106, 2′-amino-2″-(tert-butyl)-N,N-dimethyl-[2,3′:5′,4″-terpyridine]-5-carboxamide] | 1 to 2.5 µM
Nc1ncc(-c2ccnc3c2CNC3=O)cc1-c1ccc(N2CCCC2=O)cc1 [Example 95, 4-(6-amino-5-(4-(2-oxopyrrolidin-1-yl)phenyl)pyridin-3-yl)-5,6-dihydro-7H-pyrrolo[3,4-b]pyridin-7-one] | 0.001 to 0.005 µM
Nc1ncc(-c2ccnc3oc(C(=O)NC4COC4)cc23)cc1-c1ccc(N2CCCC2=O)cc1 [Example 93, 4-(6-amino-5-(4-(2-oxopyrrolidin-1-yl)phenyl)pyridin-3-yl)-N-(oxetan-3-yl)furo[2,3-b]pyridine-2-carboxamide] | 0.005 to 0.1 µM
CN(C)C(=O)c1ccc(-c2cc(-c3ccnc(C#N)c3)cnc2N)nc1 [Example 107, 2′-amino-2″-cyano-N,N-dimethyl-[2,3′:5′,4″-terpyridine]-5-carboxamide] | 1 to 2.5 µM
CN(C)C(=O)c1ccc(-c2cc(-c3ccnc4[nH]ncc34)cnc2N)nc1 [Example 212, 2′-amino-N,N-dimethyl-5′-(2H-pyrazolo[3,4-b]pyridin-4-yl)-[2,3′-bipyridine]-5-carboxamide] | 0.005 to 0.1 µM
COC(=O)c1cc2c(-c3cnc(N)c(-c4ccc(N5CCCC5=O)cc4)c3)ccnc2[nH]1 [Example 94, methyl 4-(6-amino-5-(4-(2-oxopyrrolidin-1-yl)phenyl)pyridin-3-yl)-1H-pyrrolo[2,3-b]pyridine-2-carboxylate] | 0.1 to 1 µM
COC(C)(C)c1cnc2c(c1)c(-c1cncc(-c3ccc(N4CCCC4=O)cc3)c1)cn2C [Example 155, 1-(4-(5-(5-(2-methoxypropan-2-yl)-1-methyl-1H-pyrrolo[2,3-b]pyridin-3-yl)pyridin-3-yl)phenyl)pyrrolidin-2-one] | < 5 µM
CN(C)C(=O)c1ccc(-c2cc(-c3ccnc(C(C)(C)C#N)c3)cnc2N)nc1 [Example 102, 2′-Amino-2″-(2-cyanopropan-2-yl)-N,N-dimethyl-[2,3′:5′,4″-terpyridine]-5-carboxamide] | 1 to 2.5 µM
CN(C)C(=O)c1ccc(-c2cc(-c3cccnc3)cnc2N)nc1 [Example 119, 2′-amino-N,N-dimethyl-[2,3′:5′,3″-terpyridine]-5-carboxamide] | < 5 µM
CN(C)C(=O)c1ccc(-c2cc(-c3ccncc3)cnc2N)nc1 [Example 19, 2′-amino-N,N-dimethyl-[2,3′:5′,4″-terpyridine]-5-carboxamide] | 0.1 to 1 µM
CN(C)C(=O)c1ccc(-c2cc(-c3ccncc3)cnc2N)cc1 [Example 16, 4-(6-amino-[3,4′-bipyridin]-5-yl)-N,N-dimethylbenzamide] | < 5 µM
CN(C)C(=O)c1ccc(-c2cc(-c3ccnc4c3ccn4C)cnc2N)nc1 [Example 105, 2′-amino-N,N-dimethyl-5′-(1-methyl-1H-pyrrolo[2,3-b]pyridin-4-yl)-[2,3′-bipyridine]-5-carboxamide] | 0.1 to 1 µM
Cn1cc(-c2cncc(-c3ccc(N4CCCC4=O)cc3)c2)c2cc(C(C)(C)O)cnc21 [Example 154, 1-(4-(5-(5-(2-hydroxypropan-2-yl)-1-methyl-1H-pyrrolo[2,3-b]pyridin-3-yl)pyridin-3-yl)phenyl)pyrrolidin-2-one] | < 5 µM
O=C1CCCN1c1ccc(-c2cncc(-c3c4n(c5ncccc35)CCC4)c2)cc1 [Example 299, 1-(4-(5-(7,8-dihydro-6H-pyrido[3,2-b]pyrrolizin-5-yl)pyridin-3-yl)phenyl)pyrrolidin-2-one] | 0.005 to 0.1 µM
COc1ncc(-c2cncc(-c3ccc(N4CCCC4=O)cc3)c2)c2cnn(C)c12 [Example 156, 1-(4-(5-(7-methoxy-1-methyl-1H-pyrazolo[3,4-c]pyridin-4-yl)pyridin-3-yl)phenyl)pyrrolidin-2-one] | < 5 µM
CN(C)C(=O)c1ccc(-c2cncc(-c3cncc(-c4ccnc5[nH]ccc45)c3)c2)cc1 [Example 3, 4-(5′-(H-pyrrolo[2,3-b]pyridin-4-yl)-[3,3′-bipyridin]-5-yl)-N,N-dimethylbenzamide] | 0.1 to 1 µM
Cc1c(-c2ccncc2)cncc1-c1ccc(N2CCCC2=O)cc1 [Example 82, 1-(4-(4-methyl-[3,4′-bipyridin]-5-yl)phenyl)pyrrolidin-2-one] | 0.1 to 1 µM
CN(C)C(=O)c1ccc(-c2cc(-c3ccnnc3)cnc2N)nc1 [Example 108, 2′-amino-N,N-dimethyl-5′-(pyridazin-4-yl)-[2,3′-bipyridine]-5-carboxamide] | 2.5 to 5 µM
CN(C)C(=O)c1ccc(-c2cc(-c3ccnc4ccc(C#N)cc34)cnc2N)nc1 [Example 100, 2′-Amino-5′-(6-cyanoquinolin-4-yl)-N,N-dimethyl-[2,3′-bipyridine]-5-carboxamide] | 0.1 to 1 µM
CN(C)C/C=C/C(=O)Nc1cccc(C(=O)NCc2cc(-c3cnc(N)c(-c4ccc(C(=O)N(C)C)cn4)c3)ccn2)c1 [Example 192, (E)-2′-amino-2″-((3-(4-(dimethylamino)but-2-enamido)benzamido)methyl)-N,N-dimethyl-[2,3′:5′,4″-terpyridine]-5-carboxamide] | 1 to 2.5 µM
CN(C)C(=O)c1ccc(-c2cc(-c3ccnc(C4(C#N)CC4)c3)cnc2N)nc1 [Example 103, 2′-amino-2″-(1-cyanocyclopropyl)-N,N-dimethyl-[2,3′:5′,4″-terpyridine]-5-carboxamide] | 0.1 to 1 µM
CN(C)C/C=C/C(=O)Nc1ccc(C(=O)NCc2cc(-c3cnc(N)c(-c4ccc(C(=O)N(C)C)cn4)c3)ccn2)cc1 [Example 189, (E)-2′-amino-2″-((4-(4-(dimethylamino)but-2-enamido)benzamido)methyl)-N,N-dimethyl-[2,3′:5′,4″-terpyridine]-5-carboxamide] | 1 to 2.5 µM
CN(C)C(=O)c1ccc(-c2cc(-c3ccnc(C(C)(C)O)c3)cnc2N)nc1 [Example 101, 2′-Amino-2″-(2-hydroxypropan-2-yl)-N,N-dimethyl-[2,3′:5′,4″-terpyridine]-5-carboxamide] | 1 to 2.5 µM
CN(C)C(=O)c1ccc(-c2cc(-c3ccc(=O)[nH]c3)cnc2N)cc1 [Example 17, 4-(6-amino-6′-oxo-1′,6′-dihydro-[3,3′-bipyridin]-5-yl)-N,N-dimethylbenzamide] | < 5 µM
CN(C)C(=O)c1ccc(-c2cc(-c3ccnc4occc34)cnc2N)nc1 [Example 104, 2′-amino-5′-(furo[2,3-b]pyridin-4-yl)-N,N-dimethyl-[2,3′-bipyridine]-5-carboxamide] | 0.1 to 1 µM
CN(C)C(=O)c1ccc(-c2cc(-c3ccnc4ccncc34)cnc2N)nc1 [Example 112, 2′-amino-N,N-dimethyl-5′-(1,6-naphthyridin-4-yl)-[2,3′-bipyridine]-5-carboxamide] | 1 to 2.5 µM
CN(C)C(=O)c1ccc(-c2cc(C3=CCOCC3)cnc2N)cc1 [Example 18, 4-(2-amino-5-(3,6-dihydro-2H-pyran-4-yl)pyridin-3-yl)-N,N-dimethylbenzamide] | < 5 µM
CN(C)C(=O)c1ccc(-c2cncc(-c3ccnc(C(C)(C)O)c3)c2)cc1 [Example 8, 4-(2′-(2-hydroxypropan-2-yl)-[3,4′-bipyridin]-5-yl)-N,N-dimethylbenzamide] | 1 to 2.5 µM
